Patent publication US10238689B2, “Methods for combating bacterial infections by killing persister cells with mitomycin C and/or cisplatin” (THE PENN STATE RESEARCH FOUNDATION, priority 2015, dated 2019)
Where “and” joins values, the source holds several entries; their conditions need not be identical. Equal entries are not always repeated. Entries after “also recorded” stand apart in the source; their conditions may differ.

Assays:
EHEC infection = assay type: in vivo, Caenorhabditis elegans; details: MMC 10 μg/mL, ciprofloxacin 5 μg/mL, ampicillin 100 μg/mL, 6 h exposure; four replicates
[1] = tested on: E. coli K-12 BW25113 biofilm; experiment: Biofilm dispersal assay (crystal violet); assay type: cell-based, Escherichia coli; details: 24 h static growth then 24 h with MMC, 30° C., M9-glucose
Experimental: Cultures were incubated for an additional 24 h with or without MMC. Biofilm levels were assayed using crystal violet staining as described previously (Lee, et al., Appl. Environ. Microbiol. 75, 1703 (2009)). Cell growth (turbidity at 620 nm) was used to normalize the total biofilm formation (absorbance at 540 nm). Data points were averaged from 15 replicate wells using at least two independent cultures.

E. coli K-12 = experiment: Planktonic antibiotic killing assay; assay type: cell-based, Escherichia coli; details: for fold more effective compared to ciprofloxacin: MMC 10 μg/mL vs ciprofloxacin 5 μg/mL
Experimental: (§1) In order to obtain exponential and mid-stationary phase cultures in LB, buffered LB or TSB, overnight cultures (16 h) were diluted 1:1000 in fresh medium and grown to the desired turbidity (i.e., a turbidity below 2 at 600 nm for exponential phase and a turbidity of 3 to 4 at 600 nm for mid-stationary phase). Late-stationary phase cultures in LB or buffered LB were obtained by growing overnight cultures (16 h). In order to obtain exponential and late-stationary phase cultures in M9-glucose, overnight cultures (16 h) were washed diluted 1:1000 in M9-glucose and grown for the desired period of time (i.e., a turbidity of 0.4 at 600 nm for exponential phase and 24 h of growth for late-stationary phase). Anaerobically grown cultures were maintained with ˜20% CO2, ˜79% N2, and ˜1% H2. In order to obtain rifampicin-induced persister cultures in buffered LB, overnight cultures (16 h) were diluted 1:1000 in fresh medium and grown to a turbidity of 0.8 at 600 nm. Cultures were exposed to rifampicin (100 μg/mL) for 30 min, centrifuged, and resuspended in fresh medium to remove the rifampicin.

E. coli O157:H7 (EHEC) = experiment: Planktonic antibiotic killing assay; assay type: cell-based, Escherichia coli; details: MMC 10 μg/mL, 3 h; for cell viability after treatment: rich medium (buffered LB)
Experimental: as §1

[2] = tested on: S. aureus (methicillin sensitive); experiment: Planktonic antibiotic killing assay; assay type: cell-based, Staphylococcus aureus; details: rich medium (TSB), MMC 10 μg/mL, ciprofloxacin 5 μg/mL, 3 h
Experimental: as §1

[3] = tested on: E. coli K-12 biofilm cultures; experiment: Biofilm antibiotic killing assay; assay type: cell-based, Escherichia coli
[4] = tested on: S. aureus clinical isolates 5B and 50F; experiment: Persister cell assay, clinical isolates; assay type: cell-based, Staphylococcus aureus; details: for survival: stationary phase, 500 μg/mL of cisplatin
Experimental: (§2) For the persister cell assay of the pathogens, stationary-phase cells were used. Cultures of EHEC, P. aeruginosa, and S. aureus were prepared by a 1:1000 dilution of overnight grown cultures (LB medium for EHEC and P. aeruginosa, TSB for S. aureus) into fresh buffered LB medium for EHEC, M9-glucose for P. aeruginosa, and TSB for S. aureus and re-growing the cells to a turbidity of 3 to 4 at 600 nm for EHEC and S. aureus and growing for 24 h for P. aeruginosa. […]

[5] = tested on: clinical strains of P. aeruginosa; experiment: Persister cell assay, multi-drug resistant clinical strains; assay type: cell-based, Pseudomonas aeruginosa; details: cisplatin 100 μg/mL
Experimental: as §2

[6] = tested on: E. coli K-12 persister cells; experiment: Rifampicin-induced persister cell killing assay; assay type: cell-based, Escherichia coli
Experimental: Rifampicin-pretreatment was used to convert nearly all the E. coli exponentially-growing cells to persister cells. In brief, overnight cultures (16 h) of E. coli BW25113 were diluted 1:1000 in buffered LB and grown to a turbidity of 0.8 at 600 nm (250 mL flask, 250 rpm). Cultures were treated with rifampicin (100 μg/mL) for 30 min (250 mL flask, 250 rpm), centrifuged, and resuspended in fresh medium to remove the rifampicin. A 1 mL culture was used for a drop assay to check cell viability at 0 h. […] After 3 h, 1 mL of culture was centrifuged at 10,000 rpm for 3 min, the supernatant was discarded, the cells were resuspended in 1 mL of normal saline, and the cell suspension was serially diluted for a drop assay to check cell viability. In addition, 1 mL samples were centrifuged, and the cell pellet resuspended in 150 μL of normal saline and spread on LB agar.
To test whether lower concentrations than 500 μg/mL of cisplatin generate resistant mutants, 5 mL cultures of rifampicin-induced persister cells were treated with 200 μg/mL of cisplatin and cells were enumerated by the drop assay using LB agar, LB agar with 200 μg/mL of cisplatin (LBCP200), and LB agar with 500 μg/mL of cisplatin (LBCP500).

DNA = details: Eastman 1987; cited from earlier work
S. aureus ATCC29213 = experiment: Persister cell assay of pathogens (stationary phase); assay type: cell-based, Staphylococcus aureus; details: stationary phase cells, TSB; cisplatin 500 μg/mL, 1.7×MIC, 3 h
Experimental: (§3) For the persister cell assay of the pathogens, stationary-phase cells were used. Cultures of EHEC, P. aeruginosa, and S. aureus were prepared by a 1:1000 dilution of overnight grown cultures (LB medium for EHEC and P. aeruginosa, TSB for S. aureus) into fresh buffered LB medium for EHEC, M9-glucose for P. aeruginosa, and TSB for S. aureus and re-growing the cells to a turbidity of 3 to 4 at 600 nm for EHEC and S. aureus and growing for 24 h for P. aeruginosa. Stationary-phase cultures of EHEC (buffered LB medium), P. aeruginosa (M9-glucose medium), and S. aureus (TSB medium) were then treated with cisplatin (500 μg/mL for EHEC and S. aureus, 250 μg/mL for P. aeruginosa) for 3 h (250 mL flask, 250 rpm).

[7] = tested on: enterohemorrhagic E. coli (EHEC); experiment: as above; assay type: cell-based, Escherichia coli; details: stationary-phase cells, buffered LB; cisplatin 500 μg/mL, 5×MIC, 3 h
Experimental: as §3

[8] = treatment with 2×MIC (200 μg/mL) of cisplatin

With `CO[C@@]12[C@H](COC(N)=O)C3=C(C(=O)C(C)=C(N)C3=O)N1C[C@@H]1N[C@@H]12` [MMC, mitomycin C] the “survival of the EHEC-infected worms” value (EHEC infection) was “higher than with either ciprofloxacin or ampicillin”, the biofilm dispersal [1] was “does not cause biofilm dispersal; also recorded: did not cause biofilm dispersal” and the survival (E. coli K-12; anaerobic, late-stationary phase cells in rich medium (LB)) was “eradication beyond the limit of detection; also recorded: eradicated”. The “susceptibility of exponential-phase cultures” value (E. coli K-12; exponential phase, M9-glucose) was “similarly susceptible”, the “fold more effective compared to ciprofloxacin” value (E. coli K-12; exponentially-growing cells, buffered LB, 3 h) was 2,300 fold and the “time course of killing (death curve)” value (E. coli K-12; late-stationary phase culture, buffered LB) was “does not show the bi-phasic death curve”. The “persistence (surviving population)” value (E. coli K-12; late-stationary phase, M9-glucose, MMC 10, ciprofloxacin 5, gentamicin 10 μg/mL, 3 h) was “eradication beyond the limit of detection; also recorded: eradicated cells”, the “fold more effective compared to ciprofloxacin” value (E. coli K-12; mid-stationary-phase cells, buffered LB, 3 h) was 150,000 fold and the “effectiveness against rifampicin-induced persister cells” value (E. coli K-12; rifampicin pretreatment 100 μg/mL 30 min, buffered LB, MMC 10 μg/mL, ciprofloxacin 5 μg/mL, 3 h) was “highly effective”. For the same molecule, the “cell viability after treatment” value (E. coli O157:H7 (EHEC); exponential phase) was “eradicating”, the cells survived (E. coli O157:H7 (EHEC); late-stationary phase, M9-glucose, ciprofloxacin 5 μg/mL) was “eradicated” and the “cell viability after treatment” value (E. coli O157:H7 (EHEC); mid-stationary phase) was “eradicating”. For the same molecule, the survival ([2]; exponential phase) was “eradicating”, the survival ([2]; mid-stationary phase) was “eradicating” and the “fold more susceptible to MMC than ciprofloxacin” value ([3]; anaerobic biofilm cultures in M9-glucose) was 2,500 fold. For the same molecule, the “fold more cells killed than ciprofloxacin” value ([3]; biofilms in M9-glucose, 24 h of treatment) was 100,000 fold and the “biofilm cell viability after treatment” value ([3]; biofilms in M9-glucose, MMC 10 μg/mL, 24 h) was “nearly eliminating cells”.
For `N.N.[Cl][Pt][Cl]` [cisplatin, cis-diamminodichloroplatinum(II)], the “cell viability after treatment” value ([4]; both clinical isolates, 800 μg/mL) was “completely eradicate”, the survival ([4]; isolate 5B) was 2.5±3.5% and the survival ([4]; isolate 50F) was 10±4%. It also gave a survival ([5]; strain INP-37) of 0.05±0.06%, a survival ([5]; strain INP-57M) of 0.01±0.00% and a survival ([5]; strain INP-64M) of 0.02±0.00%. For the same molecule, the survival ([5]; strain RME-101) was 0.02±0.03%, the “colonies from 1 mL samples” value ([6]; after the 3 h cisplatin treatment (500 μg/mL)) was 37±5 colonies and the “number of persister cells after treatment (drop assay)” value ([6]; cisplatin 500 μg/mL, 3 h, limit of detection) was < 100 cells/mL. The “colonies on LBCP500 agar plates (spontaneous resistant mutants)” value [6, 8] was “no colonies were found”, the “survivors on LBCP200 agar plates” value [6, 8] was 0.08% and the “intrastrand crosslinks at AG sequences” value (DNA) was 17-19% and 17 to 19%. For the same molecule, the “intrastrand crosslinks at GNG sequences” value (DNA) was < 8%, the “intrastrand crosslinks at adjacent guanines” value (DNA) was 54-65% and 54 to 65% and the survival (S. aureus ATCC29213) was 0.0001±0.0001%. The “cell viability after treatment” value [7] was “eradicated”.
